# Tests used:
# artery ring segments = assay: Maximal contractile response of artery rings; format: cell-based; conditions: for Maximal Physiological Responses, Vitrified: artery rings vitrified with VS55 (norepinephrine n = 37, phenylephrine n = 23); for Maximal Physiological Responses, Vitrified / Maximal Physiological Responses, Control: Mean ± SEM; for Maximal Physiological Responses, % of corresponding fresh controls: artery rings vitrified with VS55 versus fresh controls; for Maximal Physiological Responses, Control: fresh rings (norepinephrine n = 16, phenylephrine n = 12)
# Method: (§1) Vein rings, which are about 4 mm long segments of rabbit external jugular veins, are vitrified in VS55 by the method described above for longer external jugular vein segments, except that perfusion is not used. After being rewarmed, the vein rings are mounted between two stainless steel wire hooks and suspended in a vascular smooth muscle bath containing 5 ml of Krebs Henseleit (KH) solution, which is gassed continuously with 95% O2 and 5% CO2 at 37° C. The baseline tension of all vein rings is adjusted to 0.25 to 0.75 g. Changes in tension are recorded by force transducers. After 1 hour of equilibration, the vein rings are pretested with potassium chloride for contraction. After rinsing with KH solution, the vein rings are equilibrated for another 30 minutes prior to the start of experiment. During a relaxation experiment, contraction of the vein rings is produced by 10^−6M norepinephrine and, after the contractile response plateaus, cumulative concentrations of acetylcholine (10^−10M to 10^−4M) are added to the bathing medium to induce the endothelium dependent relaxation response.
# Artery rings are vitrified in VS55 by the method described above for vein rings. After being rewarmed, norepinephrine and phenylephrine are tested in artery ring segments vitrified with VS55 and fresh artery rings.
# [1] = tested on: rabbit jugular vein ring segments; assay: Maximal contractile response of vein rings in vascular smooth muscle bath; format: cell-based; conditions: for Maximal Physiological Responses, Control: fresh vein rings (n = 15); for Maximal Physiological Responses, Control / Maximal Physiological Responses, Vitrified: Mean ± SEM; for Maximal Physiological Responses, % of corresponding fresh controls: vein rings vitrified with VS55 versus fresh vein rings; for Maximal Physiological Responses, Vitrified: vein rings vitrified with vitrification solution VS55 (n = 26)
# Method: as §1, with “After being rewarmed, the vein rings are mounted between two stainless steel wire hooks and suspended in a vascular smooth muscle bath containing 5 ml of Krebs Henseleit (KH) solution, which is gassed continuously with 95% O2 and 5% CO2 at 37° C.” left out, “response. In the current study, histamine, bradykinin, angiotensin II, and norepinephrine are tested in rabbit jugular vein ring segments vitrified with VS55 and fresh vein rings. Both histamine and bradykinin produce contraction in the vein via their local receptors. Norepinephrine acts directly on the adrenoceptor, while angiotensin II binds to AT receptors and acts through local renin-angiotensin systems.” for “response.”
Molecule,"Maximal Physiological Responses, Vitrified (artery ring segments) [g]","Maximal Physiological Responses, % of corresponding fresh controls (artery ring segments) [%]","Maximal Physiological Responses, Control (artery ring segments) [g]","Maximal Physiological Responses, Control [1] [g]","Maximal Physiological Responses, % of corresponding fresh controls [1] [%]","Maximal Physiological Responses, Vitrified [1] [g]"
"CNC[C@H](O)c1cccc(O)c1 [Phenylephrine, phenylephrine]",2.23 ± 0.29,88.3,2.53 ± 0.45,–,–,–
"angiotensin II (DRVYIHPF; Angiotensin-2; UniProt P01019 25-32, looked up)",–,–,–,0.58 ± 0.06,84.5,0.49 ± 0.09
"NC[C@H](O)c1ccc(O)c(O)c1 [Norepinephrine, norepinephrine]",2.58 ± 0.23,90.8,2.84 ± 0.38,0.99 ± 0.12,83.8,0.83 ± 0.14
"NCCc1c[nH]cn1 [Histamine, histamine]",–,–,–,1.78 ± 0.19,87.1,1.55 ± 0.27
